Test [1] has as its target Beta-1 adrenergic receptor (Cavia porcellus, UniProt B0FL73). Briefly: Compound was tested for its Beta-1 adrenergic receptor antagonistic activity on guinea pig atria. It counts as functional. To be noted: read-out: pA2 (converted).
Test [2] concerns the target Beta-2 adrenergic receptor (Cavia porcellus, UniProt Q8K4Z4). Briefly: Beta-2 adrenergic receptor antagonistic activity on guinea pig tracheal chains. To be noted: read-out: pA2 (converted). It counts as functional.
For test [3], the target named is Beta-2 adrenergic receptor (Bos taurus, UniProt Q28044). Briefly: Compound was tested for inhibition of [3H]dihydroalprenolol radioligand binding to Beta-2 adrenergic receptor in calf lung membranes. The class given is cell membranes.
Sequence of Beta-2 adrenergic receptor (Bos taurus, UniProt Q28044) (Q28044 whole entry): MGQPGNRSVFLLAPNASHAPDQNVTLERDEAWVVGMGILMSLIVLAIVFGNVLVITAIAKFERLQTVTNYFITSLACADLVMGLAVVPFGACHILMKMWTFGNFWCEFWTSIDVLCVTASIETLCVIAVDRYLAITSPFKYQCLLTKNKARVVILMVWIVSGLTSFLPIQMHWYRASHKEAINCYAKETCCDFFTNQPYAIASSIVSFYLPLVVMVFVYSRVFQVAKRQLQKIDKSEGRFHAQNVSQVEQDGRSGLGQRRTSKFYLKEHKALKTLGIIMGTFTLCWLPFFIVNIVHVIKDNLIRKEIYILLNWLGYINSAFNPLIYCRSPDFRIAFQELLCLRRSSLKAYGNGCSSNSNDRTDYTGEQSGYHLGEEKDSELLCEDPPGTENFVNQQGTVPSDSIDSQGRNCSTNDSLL

Data on six compounds can be found in ChEMBL document CHEMBL1122110, “Use of (S)-(trifloxymethyl)oxirane in the synthesis of a chiral beta-adrenoceptor antagonist, (R)- and (S)-9-[[3-(tert-butylamino)-2-hydroxypropyl]oximino]fluorene” (J Med Chem, 1982).

As a reminder, the IC50 is the concentration needed to halve the response being measured. A low value points to greater potency.

Sequence of Beta-2 adrenergic receptor (Cavia porcellus, UniProt Q8K4Z4) (Q8K4Z4 whole entry): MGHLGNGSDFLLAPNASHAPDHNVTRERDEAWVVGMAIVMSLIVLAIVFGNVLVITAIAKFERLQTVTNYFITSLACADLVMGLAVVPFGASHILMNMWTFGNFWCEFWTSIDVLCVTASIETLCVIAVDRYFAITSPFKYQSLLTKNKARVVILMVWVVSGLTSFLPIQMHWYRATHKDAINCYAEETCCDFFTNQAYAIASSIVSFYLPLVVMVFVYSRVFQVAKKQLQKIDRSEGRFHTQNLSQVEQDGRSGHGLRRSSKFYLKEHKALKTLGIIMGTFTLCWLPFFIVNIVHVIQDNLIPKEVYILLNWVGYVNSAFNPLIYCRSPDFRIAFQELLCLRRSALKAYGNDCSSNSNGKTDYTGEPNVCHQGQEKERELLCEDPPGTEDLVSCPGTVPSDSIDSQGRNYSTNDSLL
Sequence of Beta-1 adrenergic receptor (B0FL73 whole entry): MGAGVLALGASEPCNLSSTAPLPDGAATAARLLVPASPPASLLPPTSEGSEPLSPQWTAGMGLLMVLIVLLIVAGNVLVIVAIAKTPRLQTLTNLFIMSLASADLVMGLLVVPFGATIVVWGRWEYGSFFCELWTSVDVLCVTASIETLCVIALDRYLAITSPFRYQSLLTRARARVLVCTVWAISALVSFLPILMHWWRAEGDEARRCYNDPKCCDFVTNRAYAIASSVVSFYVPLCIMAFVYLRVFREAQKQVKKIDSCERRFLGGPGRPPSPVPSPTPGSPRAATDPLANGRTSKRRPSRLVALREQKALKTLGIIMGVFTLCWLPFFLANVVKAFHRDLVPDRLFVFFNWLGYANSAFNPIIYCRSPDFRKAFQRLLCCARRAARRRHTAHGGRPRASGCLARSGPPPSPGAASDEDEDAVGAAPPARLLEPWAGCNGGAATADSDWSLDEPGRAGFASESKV

With `CCC(C)(C)NCC(O)CON=C1c2ccccc2-c2ccccc21` (stereo unspecified), the Kb was 34.7 nM in test [1] and 85.1 nM in test [2].

On to `CC(C)(C)NC[C@@H](O)CON=C1c2ccccc2-c2ccccc21`, for which the IC50 in test [3] was 20.1 nM. Moreover, the Kb in test [1] is 13.2 nM; in test [2], 18.2 nM.

`CC(C)(C)NC[C@H](O)CON=C1c2ccccc2-c2ccccc21` registered an IC50 in test [3] of 30.8 nM. Moreover, the Kb in test [1] is 37.2 nM; in test [2] it was 17 nM.

In test [3], `CC(C)(C)NCC(O)CON=C1c2ccccc2-c2ccccc21` (stereo unspecified) came in with an IC50 of 24.6 nM. For the same compound, the Kb was 33.9 nM in test [1] and 66.1 nM in test [2].

Take `CCC(C)(C)NC[C@H](O)CON=C1c2ccccc2-c2ccccc21`: the Kb was 16.6 nM in test [1] and 74.1 nM in test [2].

In test [3], `Cc1ccc(OCC(O)CNC(C)C)c2c1CCC2` (stereo unspecified) came in with an IC50 of 17.6 nM. For the same compound, the Kb in test [1] is 97.7 nM; in test [2] it was 31.6 nM.
